Data as given in PubChem BioAssay (NCI).
Where “and” joins values, the source holds several entries; their conditions need not be identical. Identical values can stand only once.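 A five-concentration, 48-hour dose response in 96-well plates underlies each endpoint, interpolated linearly between surrounding concentrations. GI50 = concentration required for 50% inhibition of growth. TGI is the concentration that stops growth completely.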

How the values were obtained:
Experiment in all cases: NCI anticancer screen, dose series, 48 h
SK-MEL-2 melanoma = test system: SK-MEL-2 melanoma
MDA-MB-231 breast = test system: MDA-MB-231 breast
HCT-15 colon = test system: HCT-15 colon
HOP-62 NSCLC = test system: HOP-62 NSCLC
KM12 colon = test system: KM12 colon
EKVX NSCLC = test system: EKVX NSCLC
NCI-H522 lung = test system: NCI-H522 lung
NCI-H23 lung = test system: NCI-H23 lung
786-0 renal = test system: 786-0 renal
SN12C renal = test system: SN12C renal

Compound | GI50 (SK-MEL-2 melanoma) [µM] | TGI (SK-MEL-2 melanoma) | GI50 (MDA-MB-231 breast) [µM] | TGI (MDA-MB-231 breast) | GI50 (HCT-15 colon) [µM] | TGI (HCT-15 colon) | GI50 (HOP-62 NSCLC) [µM] | TGI (HOP-62 NSCLC) | GI50 (KM12 colon) [µM] | TGI (KM12 colon) | GI50 (EKVX NSCLC) [µM] | TGI (EKVX NSCLC) | GI50 (NCI-H522 lung) [µM] | TGI (NCI-H522 lung) | GI50 (NCI-H23 lung) [µM] | TGI (NCI-H23 lung) | GI50 (786-0 renal) [µM] | TGI (786-0 renal) | GI50 (SN12C renal) [µM] | TGI (SN12C renal)
CC1=C/C(O)CC(=O)Cc2nc(co2)C(=O)N2CCC=C2C(=O)OC(C(C)C)C(C)/C=C\C(=O)NC/C=C\1 (stereo not drawn) | 10.1 | > 100 µM | 27.1 | > 71.4 µM and 61.4 µM | 28.8 | > 89.5 µM and 46.6 µM | 19.1 | > 100 µM | 15.1 | 30.3 µM and 25.3 µM | 36.4 | > 100 µM and 53.3 µM | 15.2 | > 65.6 µM and 11.8 µM | 14.2 | 44.4 µM and 37.7 µM | 26.2 | 90.1 µM and 60.8 µM | 25.9 | > 100 µM and 29.2 µM
CCOC(=O)Nc1ccc(C(=O)/C=C/c2ccccc2)cc1 | 25.9 | 69.7 µM | 33.4 | > 100 µM | 27.2 | > 100 µM | 20.4 | 47.3 µM | 4.8 | 17.6 µM | 37.5 | > 100 µM | 20.9 | 79.8 µM | 23.7 | 61.1 µM | 26.3 | 81.5 µM | 24.4 | > 100 µM
COc1cc2oc(-c3cccc(C(=O)Nc4ccc(C)cc4)c3)cc(=O)c2c(OC)c1OC | 3.33 | 9.55 µM | 0.468 | 3.23 µM | 1.96 | > 100 µM | 3.68 | 28.3 µM | 3.66 | > 100 µM | – | – | 2.67 | 9.31 µM | 4.43 | 51.4 µM | 2.06 | 6.11 µM | 1.91 | > 100 µM
CN(C)CCCN1c2ccc(O)cc2Sc2ccc(Cl)cc21 | – | 19 µM | – | 23.6 µM | – | 29 µM | – | 29.5 µM | – | 23 µM | – | 35.9 µM | – | 25.3 µM | – | 34 µM | – | 24 µM | – | 23.1 µM
Cc1ccc(NC(=O)N2CCCCC2)cc1[N+](=O)[O-] | > 100 | > 100 µM | > 100 | > 100 µM | > 100 | > 100 µM | > 100 | > 100 µM | > 100 | > 100 µM | > 100 | > 100 µM | 87.1 | > 100 µM | > 100 | > 100 µM | > 100 | > 100 µM | > 100 | > 100 µM
CC(C)c1ccc(/C=N/N=C(N)N)cc1 | 2.64 | 5.61 µM | 7.39 | 21.5 µM | 4.19 | 16.8 µM | 4.61 | 17.9 µM | 3.3 | 11.6 µM | 5.33 | 24.4 µM | 3.22 | 12.9 µM | 3.96 | 19.7 µM | 12.4 | 27.3 µM | 6.35 | 20.4 µM
CNC(=O)/C(=C/c1ccc(OC)cc1)c1cc(OC)c(OC)c(OC)c1 | – | > 100 µM | – | > 77.9 µM | – | > 100 µM | – | > 100 µM | – | > 83.9 µM | – | > 100 µM | – | 4.39 µM | – | 32.6 µM | – | > 100 µM | – | 98.1 µM
OCc1ncc(-c2ccccc2)s1 | > 100 | > 100 µM | > 100 | > 100 µM | > 100 | > 100 µM | > 100 | > 100 µM | > 100 | > 100 µM | > 100 | > 100 µM | > 100 | > 100 µM | > 100 | > 100 µM | > 100 | > 100 µM | > 100 | > 100 µM
CC(=O)N1N=C(c2ccc(Nc3nc(Nc4ccc(F)cc4)nc(Nc4ccc(Cl)cc4)n3)cc2)CC1c1ccc(N(C)C)cc1 (stereo not drawn) | – | – | 5.66 | 21 µM | 2.64 | 30.5 µM | 3.25 | 13.2 µM | 6.02 | 20.9 µM | 8.06 | > 90.9 µM | 3.79 | > 58.3 µM | 2.96 | 16.1 µM | 3.65 | 13.7 µM | 6.1 | 33.3 µM
Nc1cc(N)cc(Cc2ccccc2)c1 | – | > 100 µM | – | > 100 µM | – | > 100 µM | – | > 100 µM | – | > 100 µM | – | > 100 µM | – | > 100 µM | – | > 100 µM | – | > 100 µM | – | > 100 µM
COc1ccccc1Nc1nc2ccccc2c2occc12 | 12 | 28.2 µM | 10.9 | 29.1 µM | 10.5 | 27 µM | 24.5 | > 50 µM | 16.1 | > 50 µM | 11.9 | 28.1 µM | 12 | 29.7 µM | 16.3 | 35.9 µM | 15.3 | 38.7 µM | 10.7 | 33.8 µM
CCOC(=O)C(O)Cc1cnc2ccccc2n1 (stereo not drawn) | – | > 100 µM | – | > 100 µM | – | > 100 µM | – | > 100 µM | – | > 100 µM | – | > 100 µM | – | > 100 µM | – | > 100 µM | – | > 100 µM | – | > 100 µM
CC(=O)OC1CC2(O)C(CCC3(C)C(c4ccc(=O)oc4)CCC32O)C2(C)CCC(OC3OC(CO)C(O)C(O)C3O)C=C12 (stereo not drawn) | 0.0474 | 0.413 µM | 0.0684 | 0.396 µM | 0.0343 | 0.134 µM | 0.0201 | 0.144 µM | 0.0416 | 0.2 µM | 0.0135 | 0.0419 µM | < 0.01 | 0.148 µM | 0.0114 | 0.0539 µM | 0.0129 | 0.03 µM | – | –
Clc1ccc(N/N=C(\c2ccccc2)c2ccccn2)nc1 | 0.796 | > 95.1 µM and 32.3 µM | 0.237 | > 65.8 µM and 48.4 µM | 0.0505 | > 38.3 µM and 14.1 µM | 0.31 | > 33.7 µM and 12.3 µM | 0.39 | > 41.4 µM and 5.81 µM | 0.0726 | – | 0.0805 | 2.77 µM | 0.279 | > 77.9 µM and 12.9 µM | 0.291 | 15.8 µM | 0.251 | > 49.2 µM and 33.1 µM
